Laboratory results from patent US20260308222A1, “STABILIZED ANALOGUES OF CALCITONIN” (YISSUM RESEARCH DEVELOPMENT COMPANY OF THE HEBREW …, priority 2024, published 2026).
Where “and” joins values, the source holds several entries; their conditions need not be identical. Identical values can stand only once. Values belong to the compound of their own block, whether it stands above or below them. Bridge positions count the residues as written; N and C are the ends. Square brackets hold non-standard residues; d marks the D form. Peptide text beside a SMILES is read from it. Sec = N[C@@H](C[SeH])C(=O)O

Key:
[1] = Circular dichroism analysis, percent α-helicity; type: physicochemical; conditions: 10 mM phosphate buffer pH 7, SDS; for % α helicity: 10-30 μM peptide, 2 h folding
Procedure: Following synthesis of the calcitonin analogues, the helicity of the calcitonin analogues was assessed by circular dichroism analysis. Far ultraviolet spectra (FIG. 6) were obtained from 195-260 nm on J-180 spectropolarimeter (Jasco) using 10-30 μM of sCT and all analogues in 10 mM phosphate buffer pH 7 and in the presence of sodium dodecyl sulphate (SDS), which were left for 2 h to allow folding. Each spectrum represents the average of 3 scans, and the mean residue ellipticity (θMRE) was calculated according to the following equation: […]
Percentage helicity of peptides as presented in Table 2 was calculated according to the following equation (Sommese, et al. 2010): […]
where n is the number of amino acids in the peptide.

[2] = Degradation in simulated gastric fluid (SGF); type: in vitro ADME; conditions: for half-life: simulated gastric fluid, pH 1.3, pepsin 0.2 mg/mL stock, read-out: SGF t1/2; for half-life / SGF t1/2 / half-life in SGF relative to sCT: pH 1.3, 37 °C; for SGF t1/2: pepsin 0.2 mg/mL stock; for half-life in SGF relative to sCT: pepsin
Procedure: sCT and its analogues were evaluated for their degradation in simulated gastric fluid (SGF). The stock solution of each analogue was prepared by dissolving 2 mg of the peptide in 1 mL water. The stock solution of pepsin enzyme was prepared by dissolving 5 mg of pepsin in 5 mL of 10 mM HCl (1 mg/mL), and then was diluted to a 0.2 mg/mL with 10 mM HCl. 7 For degradation, 34 μL of pepsin (0.2 mg/mL) was added to 100 μL of peptide (2 mg/mL) at pH 1.3 and the reaction incubated at 37° C. To monitor the degradation, 10 μL of the reaction aliquots were taken and quenched with 10 μL of 10 mM NaOH every 30 min for several hours and analyzed by HPLC using XSelect C18 column ([…], 130 A, 4.6×150 mm) with a gradient of 5-70% of 0.1% TFA in MeCN over 20 min with monitoring at 220 nm.

[3] = target: T1, calcitonin receptor (CTR) (Homo sapiens, UniProt P30988); assay: Ca^2+ concentration assay, HEK293 CALCR-HiTSeeker cell line; type: cell-based; design: expressed in transfected cells; conditions: HEK293 CALCR-HiTSeeker cells
T1 sequence (P30988 25-474): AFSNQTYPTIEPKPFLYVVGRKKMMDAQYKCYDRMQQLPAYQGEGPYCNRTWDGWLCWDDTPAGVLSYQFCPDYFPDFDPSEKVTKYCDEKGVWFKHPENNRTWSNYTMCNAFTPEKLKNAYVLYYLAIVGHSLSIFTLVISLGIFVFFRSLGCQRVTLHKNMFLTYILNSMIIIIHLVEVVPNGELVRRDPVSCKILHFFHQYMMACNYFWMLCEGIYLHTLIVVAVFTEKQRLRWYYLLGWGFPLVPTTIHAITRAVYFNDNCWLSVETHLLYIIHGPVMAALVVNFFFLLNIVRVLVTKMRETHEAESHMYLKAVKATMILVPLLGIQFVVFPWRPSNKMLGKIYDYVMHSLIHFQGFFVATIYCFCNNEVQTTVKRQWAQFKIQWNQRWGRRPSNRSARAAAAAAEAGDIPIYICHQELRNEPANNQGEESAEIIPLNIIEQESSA

[4] = target: T1, calcitonin receptor (CTR); assay: cAMP accumulation assay, U2OS Red cAMPNomad-CALCR cell line; type: cell-based; design: expressed in transfected cells; host or cells: U2OS Red cAMPNomad-CALCR; conditions: U2OS Red cAMPNomad-CALCR cells; for EC50: overnight incubation
[5] = Degradation in simulated intestinal fluid (SIF); conditions: for stability in SIF compared to sCT: pancreatin; for half-life: simulated intestinal fluid, pH 6.8, SIF t1/2, pancreatin 2 mg/mL stock

SGF t1/2 [2]: 170.6 ± 32.2 min
half-life in SGF relative to sCT ([2]; vs sCT): five-fold longer half-life
half-life [2]: 170 min
improvement in stability in simulated gastric fluid over sCT ([2]; vs sCT, first figure of sentence): 5 fold
EC50 ([3]; read-out: Ca^2+ EC50): 216 ± 43.8 nM
SIF t1/2 ([5]; pancreatin 2 mg/mL stock, pH 6.8, 37 °C): 41.9 ± 6.1 min
half-life ([5]; pH 6.8, 37 °C): 42 min
improvement in stability in simulated gastric fluid ([5]; vs sCT, second figure of sentence): 6 fold
EC50 ([4]; read-out: cAMP EC50): 2.67 nM and 2.7 nM
Compound: CC(C)C[C@@H]1NC(=O)[C@@H](NC(=O)CNC(=O)[C@H](CC(C)C)NC(=O)[C@@H](NC(=O)[C@@H]2CSSC[C@H](N)C(=O)N[C@@H](CO)C(=O)N[C@@H](CC(N)=O)C(=O)N[C@@H](CC(C)C)C(=O)N[C@@H](CO)C(=O)N[C@@H]([C@@H](C)O)C(=O)N2)C(C)C)CCCCNCc2cc(ccc2O)C[C@@H](C(=O)N2CCC[C@H]2C(=O)N[C@@H](CCC(N)=O)C(=O)N[C@H](C(=O)N[C@@H](CC(N)=O)C(=O)N[C@H](C(=O)NCC(=O)N[C@@H](CO)C(=O)NCC(=O)N[C@H](C(=O)N2CCC[C@H]2C(N)=O)[C@@H](C)O)[C@@H](C)O)[C@@H](C)O)NC(=O)[C@H]([C@@H](C)O)NC(=O)[C@H](CCC(N)=O)NC(=O)[C@H](CC(C)C)NC(=O)[C@H](CCCCN)NC(=O)[C@H](Cc2c[nH]cn2)NC(=O)[C@H](CC(C)C)NC(=O)[C@H](CCC(=O)O)NC(=O)[C@H](CCC(N)=O)NC(=O)[C@H](CO)NC1=O [KaY-1(R24Q)]
stability in SIF compared to sCT ([5]; pH 6.8, 37 °C, vs sCT): six-fold enhancement in stability compared to sCT

helicity retained following cyclization [1]: retain the high degree of helicity
% α helicity [1]: 98.5%
half-life [2]: 33.5 ± 0.2 min
EC50 ([3]; read-out: Ca^2+ EC50): 7300 ± 700 nM
EC50 ([3]; read-out: Ca^2+ EC50 (bound)): > 1000 nM
EC50 ([4]; read-out: cAMP EC50): 1670 ± 60 nM
EC50 ([4]; read-out: cAMP EC50 (bound)): > 1000 nM
Compound: CC(C)C[C@H](NC(=O)[C@H](CCCCN)NC(=O)CNC(=O)[C@H](CC(C)C)NC(=O)[C@@H](NC(=O)[C@@H]1CSCSC[C@H](N)C(=O)N[C@@H](CO)C(=O)N[C@@H](CC(N)=O)C(=O)N[C@@H](CC(C)C)C(=O)N[C@@H](CO)C(=O)N[C@@H]([C@@H](C)O)C(=O)N1)C(C)C)C(=O)N[C@@H](CO)C(=O)N[C@@H](CCC(N)=O)C(=O)N[C@@H](CCC(=O)O)C(=O)N[C@@H](CC(C)C)C(=O)N[C@@H](Cc1c[nH]cn1)C(=O)N[C@@H](CCCCN)C(=O)N[C@@H](CC(C)C)C(=O)N[C@@H](CCC(N)=O)C(=O)N[C@H](C(=O)N[C@@H](Cc1ccc(O)cc1)C(=O)N1CCC[C@H]1C(=O)N[C@@H](CCCNC(=N)N)C(=O)N[C@H](C(=O)N[C@@H](CC(N)=O)C(=O)N[C@H](C(=O)NCC(=O)N[C@@H](CO)C(=O)NCC(=O)N[C@H](C(=O)N1CCC[C@H]1C(N)=O)[C@@H](C)O)[C@@H](C)O)[C@@H](C)O)[C@@H](C)O [MT-CT]

% α helicity [1]: 62.9%
half-life [2]: 47.3 ± 1.9 min
Compound: CC(C)C[C@H](NC(=O)[C@H](CCCCN)NC(=O)CNC(=O)[C@H](CC(C)C)NC(=O)[C@@H](NC(=O)[C@@H]1CSSC[C@H](N)C(=O)N[C@@H](CO)C(=O)N[C@@H](CC(N)=O)C(=O)N[C@@H](CC(C)C)C(=O)N[C@@H](CO)C(=O)N[C@@H]([C@@H](C)O)C(=O)N1)C(C)C)C(=O)N[C@@H](CO)C(=O)N[C@@H](CCC(N)=O)C(=O)N[C@H]1CCC(=O)NCCCC[C@@H](C(=O)N[C@@H](CC(C)C)C(=O)N[C@@H](CCC(N)=O)C(=O)N[C@H](C(=O)N[C@@H](Cc2ccc(O)cc2)C(=O)N2CCC[C@H]2C(=O)N[C@@H](CCCNC(=N)N)C(=O)N[C@H](C(=O)N[C@@H](CC(N)=O)C(=O)N[C@H](C(=O)NCC(=O)N[C@@H](CO)C(=O)NCC(=O)N[C@H](C(=O)N2CCC[C@H]2C(N)=O)[C@@H](C)O)[C@@H](C)O)[C@@H](C)O)[C@@H](C)O)NC(=O)[C@H](Cc2c[nH]cn2)NC(=O)[C@H](CC(C)C)NC1=O [CT(E15-K18)]

Second part, the compound before the results:

Compound: CC(C)C[C@H](NC(=O)[C@H](CCCCN)NC(=O)CNC(=O)[C@H](CC(C)C)NC(=O)[C@@H](NC(=O)[C@@H]1C[Se][Se]C[C@H](N)C(=O)N[C@@H](CO)C(=O)N[C@@H](CC(N)=O)C(=O)N[C@@H](CC(C)C)C(=O)N[C@@H](CO)C(=O)N[C@@H]([C@@H](C)O)C(=O)N1)C(C)C)C(=O)N[C@@H](CO)C(=O)N[C@@H](CCC(N)=O)C(=O)N[C@@H](CCC(=O)O)C(=O)N[C@@H](CC(C)C)C(=O)N[C@@H](Cc1c[nH]cn1)C(=O)N[C@@H](CCCCN)C(=O)N[C@@H](CC(C)C)C(=O)N[C@@H](CCC(N)=O)C(=O)N[C@H](C(=O)N[C@@H](Cc1ccc(O)cc1)C(=O)N1CCC[C@H]1C(=O)N[C@@H](CCCNC(=N)N)C(=O)N[C@H](C(=O)N[C@@H](CC(N)=O)C(=O)N[C@H](C(=O)NCC(=O)N[C@@H](CO)C(=O)NCC(=O)N[C@H](C(=O)N1CCC[C@H]1C(N)=O)[C@@H](C)O)[C@@H](C)O)[C@@H](C)O)[C@@H](C)O [Se-CT] (H-[Sec]SNLST[Sec]VLGKLSQELHKLQTYPRTNTGSGTP-NH2; diselenide 1-7)
helicity retained following cyclization [1]: retain the high degree of helicity
% α helicity [1]: 99.2%
half-life [2]: 32.6 ± 0.5 min
EC50 ([3]; read-out: Ca^2+ EC50): 113 ± 18.3 nM
cAMP EC50 / potency [4]: EC50 in the nanomolar range
EC50 ([4]; read-out: cAMP EC50): 82.7 ± 16.5 nM

Compound: CC(C)C[C@@H]1NC(=O)[C@@H](NC(=O)CNC(=O)[C@H](CC(C)C)NC(=O)[C@@H](NC(=O)[C@@H]2CSSC[C@H](N)C(=O)N[C@@H](CO)C(=O)N[C@@H](CC(N)=O)C(=O)N[C@@H](CC(C)C)C(=O)N[C@@H](CO)C(=O)N[C@@H]([C@@H](C)O)C(=O)N2)C(C)C)CCCCNCc2cc(ccc2O)C[C@@H](C(=O)N2CCC[C@H]2C(=O)N[C@@H](CCCNC(=N)N)C(=O)N[C@H](C(=O)N[C@@H](CC(N)=O)C(=O)N[C@H](C(=O)NCC(=O)N[C@@H](CO)C(=O)NCC(=O)N[C@H](C(=O)N2CCC[C@H]2C(N)=O)[C@@H](C)O)[C@@H](C)O)[C@@H](C)O)NC(=O)[C@H]([C@@H](C)O)NC(=O)[C@H](CCC(N)=O)NC(=O)[C@H](CC(C)C)NC(=O)[C@H](CCCCN)NC(=O)[C@H](Cc2c[nH]cn2)NC(=O)[C@H](CC(C)C)NC(=O)[C@H](CCC(=O)O)NC(=O)[C@H](CCC(N)=O)NC(=O)[C@H](CO)NC1=O [KaY-1]
helicity retained following cyclization [1]: retain the high degree of helicity
% α helicity [1]: 93.7%
SGF t1/2 [2]: 191.2 ± 66.1 min
half-life in SGF relative to sCT ([2]; vs sCT): five-fold longer half-life
half-life [2]: 190 min
Ca^2+ EC50 / efficacy [3]: similar
EC50 ([3]; read-out: Ca^2+ EC50): 166 ± 34.8 nM
stability in SIF compared to sCT ([5]; pH 6.8, 37 °C, vs sCT): did not exhibit any improvements
half-life ([5]; pH 6.8, 37 °C): 7.1 ± 0.7 min
cAMP EC50 / potency [4]: EC50 in the nanomolar range
EC50 ([4]; read-out: cAMP EC50): 47.6 ± 24.1 nM

Compound: CC(C)C[C@H](NC(=O)[C@H](CCCCN)NC(=O)CNC(=O)[C@H](CC(C)C)NC(=O)[C@@H](NC(=O)[C@@H]1CSSC[C@H](N)C(=O)N[C@@H](CO)C(=O)N[C@@H](CC(N)=O)C(=O)N[C@@H](CC(C)C)C(=O)N[C@@H](CO)C(=O)N[C@@H]([C@@H](C)O)C(=O)N1)C(C)C)C(=O)N[C@@H](CO)C(=O)N[C@@H](CCC(N)=O)C(=O)N[C@@H](CCC(=O)O)C(=O)N[C@@H](CC(C)C)C(=O)N[C@@H](Cc1c[nH]cn1)C(=O)N[C@H]1CCCCNCc2cc(ccc2O)C[C@@H](C(=O)N2CCC[C@H]2C(=O)N[C@@H](CCCNC(=N)N)C(=O)N[C@H](C(=O)N[C@@H](CC(N)=O)C(=O)N[C@H](C(=O)NCC(=O)N[C@@H](CO)C(=O)NCC(=O)N[C@H](C(=O)N2CCC[C@H]2C(N)=O)[C@@H](C)O)[C@@H](C)O)[C@@H](C)O)NC(=O)[C@H]([C@@H](C)O)NC(=O)[C@H](CCC(N)=O)NC(=O)[C@H](CC(C)C)NC1=O [KaY-2]
% α helicity [1]: 56.2%
half-life [2]: 34.5 ± 0.3 min
